PubChem BioAssay (NCI)
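Compound exposure: 48 hours, 5 concentrations, 96-well plates. Abbreviation: GI50, concentration required for 50% inhibition of growth. The concentration for full growth arrest is given as TGI.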

Experiments:
Assay in all cases: NCI-60 cell line screen, 48 h
HS 578T breast = test system: HS 578T breast
T-47D breast = test system: T-47D breast
HL-60(TB) leukemia = test system: HL-60(TB) leukemia
MDA-MB-231 breast = test system: MDA-MB-231 breast
SNB-19 CNS = test system: SNB-19 CNS
HOP-62 NSCLC = test system: HOP-62 NSCLC
RPMI-8226 leukemia = test system: RPMI-8226 leukemia
K-562 leukemia = test system: K-562 leukemia
HOP-92 NSCLC = test system: HOP-92 NSCLC
EKVX NSCLC = test system: EKVX NSCLC

COc1ccc(C2=CC(c3ccc(Oc4ccnc5cc(Cl)ccc45)c(OC)c3)c3c(nc(OC)[nH]c3=O)N2)cc1 (stereo not given)
GI50 (HS 578T breast): 7.04 µM | TGI (HS 578T breast): > 100 µM | GI50 (T-47D breast): 6.83 µM | TGI (T-47D breast): > 100 µM | GI50 (HL-60(TB) leukemia): 3.51 µM | TGI (HL-60(TB) leukemia): 45.5 µM | GI50 (MDA-MB-231 breast): 8.62 µM | TGI (MDA-MB-231 breast): > 100 µM | GI50 (SNB-19 CNS): 61.4 µM | TGI (SNB-19 CNS): > 100 µM | GI50 (HOP-62 NSCLC): 84.9 µM | TGI (HOP-62 NSCLC): > 100 µM | GI50 (RPMI-8226 leukemia): 2.73 µM | TGI (RPMI-8226 leukemia): 7.27 µM | GI50 (K-562 leukemia): 3.73 µM | TGI (K-562 leukemia): > 100 µM

O=C1NC2(CCCC2)/C(=N\O)C12CCCC2
TGI (HOP-92 NSCLC): > 100 µM | TGI (EKVX NSCLC): > 100 µM | TGI (HL-60(TB) leukemia): > 100 µM | TGI (SNB-19 CNS): > 100 µM | TGI (HOP-62 NSCLC): > 100 µM | TGI (K-562 leukemia): > 100 µM

Clc1ccccc1C1N2CCCCC2[C@@H]2c3[nH]c4ccccc4c3CCN12 (stereo not given in full)
TGI (HOP-92 NSCLC): > 100 µM | TGI (EKVX NSCLC): > 100 µM | TGI (HL-60(TB) leukemia): > 100 µM | TGI (SNB-19 CNS): 82.7 µM | TGI (HOP-62 NSCLC): 59.3 µM | TGI (RPMI-8226 leukemia): 66.6 µM | TGI (K-562 leukemia): 44.2 µM

O=C(c1ccccn1)c1nc(-c2ccc(Cl)c(Cl)c2)nc2ccc(Cl)cc12
TGI (EKVX NSCLC): > 100 µM | TGI (HL-60(TB) leukemia): > 100 µM | TGI (HOP-62 NSCLC): > 100 µM | TGI (RPMI-8226 leukemia): > 100 µM | TGI (K-562 leukemia): > 100 µM

COc1cc(-c2cc(-c3nc4cc(Cl)c(Cl)cc4[nH]3)[nH]n2)cc(OC)c1OC
GI50 (HS 578T breast): 4.53 µM | TGI (HS 578T breast): > 100 µM | GI50 (T-47D breast): 1.87 µM | TGI (T-47D breast): 5 µM | GI50 (HL-60(TB) leukemia): 3.34 µM | TGI (HL-60(TB) leukemia): 11.6 µM | GI50 (MDA-MB-231 breast): 4.14 µM | TGI (MDA-MB-231 breast): 20.1 µM | GI50 (SNB-19 CNS): 5.47 µM | TGI (SNB-19 CNS): 22.2 µM | GI50 (HOP-62 NSCLC): 3.43 µM | TGI (HOP-62 NSCLC): 11 µM | GI50 (RPMI-8226 leukemia): 1.75 µM | TGI (RPMI-8226 leukemia): 4.39 µM | GI50 (K-562 leukemia): 3.3 µM | TGI (K-562 leukemia): 24.9 µM

COc1ccc(OC)c(/C=C/C(=O)C(C)(C)C)c1
TGI (HOP-92 NSCLC): 44.1 µM | TGI (EKVX NSCLC): 43.9 µM | TGI (HL-60(TB) leukemia): 38.7 µM | TGI (SNB-19 CNS): 32.4 µM | TGI (HOP-62 NSCLC): 50.8 µM | TGI (RPMI-8226 leukemia): 40.7 µM | TGI (K-562 leukemia): 55.8 µM

C=CC[N+]1(CCO)CCN=C1CCCCCCCCCCCCC (stereo not given)
GI50 (HS 578T breast): 1.58 µM | TGI (HS 578T breast): 3.76 µM | GI50 (T-47D breast): 1.65 µM | TGI (T-47D breast): 3.47 µM | GI50 (EKVX NSCLC): 1.62 µM | TGI (EKVX NSCLC): 2.97 µM | GI50 (HL-60(TB) leukemia): 1.51 µM | TGI (HL-60(TB) leukemia): 3.1 µM | GI50 (MDA-MB-231 breast): 1.61 µM | TGI (MDA-MB-231 breast): 3.1 µM | GI50 (SNB-19 CNS): 1.63 µM | TGI (SNB-19 CNS): 2.99 µM | GI50 (HOP-62 NSCLC): 1.72 µM | TGI (HOP-62 NSCLC): 3.09 µM

CN(C)CCNC(=O)c1cccc2ccc(-c3cccnc3)nc12
TGI (HOP-92 NSCLC): 14.4 µM | TGI (EKVX NSCLC): 19.8 µM | TGI (HL-60(TB) leukemia): > 100 µM | TGI (SNB-19 CNS): 22.6 µM | TGI (HOP-62 NSCLC): 19.2 µM | TGI (K-562 leukemia): > 100 µM

C/C=C/C(=O)[C@@H](O)C(C)C
TGI (HOP-92 NSCLC): > 100 µM | TGI (EKVX NSCLC): > 100 µM | TGI (SNB-19 CNS): > 100 µM | TGI (RPMI-8226 leukemia): > 100 µM | TGI (K-562 leukemia): > 100 µM

COc1cc(CNc2nc3cc(N)cc(N)c3nc2-c2ccccc2)cc(OC)c1OC
GI50 (HOP-92 NSCLC): 1.21 µM | TGI (HOP-92 NSCLC): 3.12 µM | GI50 (HS 578T breast): 3 µM | TGI (HS 578T breast): 33.4 µM | GI50 (EKVX NSCLC): 1.94 µM | TGI (EKVX NSCLC): 8.31 µM | GI50 (HL-60(TB) leukemia): 1.25 µM | TGI (HL-60(TB) leukemia): > 50 µM | GI50 (MDA-MB-231 breast): 7.3 µM | TGI (MDA-MB-231 breast): 15.2 µM | GI50 (SNB-19 CNS): 7.22 µM | TGI (SNB-19 CNS): 20.8 µM | GI50 (HOP-62 NSCLC): 17.1 µM | TGI (HOP-62 NSCLC): > 50 µM | GI50 (RPMI-8226 leukemia): 0.697 µM | TGI (RPMI-8226 leukemia): 3 µM | GI50 (K-562 leukemia): 1.76 µM | TGI (K-562 leukemia): > 50 µM

COc1nc2c(cc1S(=O)(=O)c1ccccc1)CCc1c-2cnn1Cc1ccccc1
GI50 (HS 578T breast): 13.3 µM | TGI (HS 578T breast): > 100 µM | GI50 (T-47D breast): 3.09 µM | TGI (T-47D breast): 79.5 µM | GI50 (EKVX NSCLC): 14 µM | TGI (EKVX NSCLC): > 100 µM | GI50 (HL-60(TB) leukemia): 2.95 µM | TGI (HL-60(TB) leukemia): > 100 µM | GI50 (MDA-MB-231 breast): > 100 µM | TGI (MDA-MB-231 breast): > 100 µM | GI50 (SNB-19 CNS): > 100 µM | TGI (SNB-19 CNS): > 100 µM | GI50 (HOP-62 NSCLC): 17.7 µM | TGI (HOP-62 NSCLC): > 100 µM | GI50 (RPMI-8226 leukemia): 3.49 µM | TGI (RPMI-8226 leukemia): > 100 µM | GI50 (K-562 leukemia): 3.02 µM | TGI (K-562 leukemia): > 100 µM

C[n+]1c2cc(N)ccc2cc2ccc(N)cc21 (tested in a mixture with another compound)
GI50 (HOP-92 NSCLC): 0.273 µM | TGI (HOP-92 NSCLC): 1.09 µM | GI50 (HS 578T breast): 0.687 µM | TGI (HS 578T breast): 3.56 µM | GI50 (T-47D breast): 0.33 µM | TGI (T-47D breast): 3.02 µM | GI50 (EKVX NSCLC): 0.261 µM | TGI (EKVX NSCLC): 1.77 µM | GI50 (MDA-MB-231 breast): 0.618 µM | TGI (MDA-MB-231 breast): 2.5 µM | GI50 (SNB-19 CNS): 0.578 µM | TGI (SNB-19 CNS): 3.94 µM | GI50 (HOP-62 NSCLC): 0.63 µM | TGI (HOP-62 NSCLC): 5.37 µM | GI50 (RPMI-8226 leukemia): 0.345 µM | TGI (RPMI-8226 leukemia): 1.68 µM | GI50 (K-562 leukemia): 0.2 µM | TGI (K-562 leukemia): 1.25 µM

Cc1cc2c(=O)cc(-c3ccc(C(F)(F)F)cc3)oc2c(C(=O)O)c1C
TGI (EKVX NSCLC): > 100 µM | TGI (SNB-19 CNS): > 100 µM | TGI (RPMI-8226 leukemia): > 100 µM | TGI (K-562 leukemia): > 100 µM

O=S(=O)(CC#CCCCOCC#Cc1ccccc1C#CCS(=O)(=O)c1ccccc1)c1ccccc1
GI50 (HS 578T breast): 35.2 µM | TGI (HS 578T breast): > 100 µM | GI50 (T-47D breast): > 100 µM | TGI (T-47D breast): > 100 µM | GI50 (EKVX NSCLC): > 100 µM | TGI (EKVX NSCLC): > 100 µM | GI50 (HL-60(TB) leukemia): 21.8 µM | TGI (HL-60(TB) leukemia): 50.1 µM | GI50 (MDA-MB-231 breast): 19.8 µM | TGI (MDA-MB-231 breast): 42.8 µM | GI50 (SNB-19 CNS): > 100 µM | TGI (SNB-19 CNS): > 100 µM | GI50 (HOP-62 NSCLC): 31.7 µM | TGI (HOP-62 NSCLC): > 100 µM | GI50 (RPMI-8226 leukemia): 11.6 µM | TGI (RPMI-8226 leukemia): 31.4 µM | GI50 (K-562 leukemia): 15.9 µM | TGI (K-562 leukemia): 39.6 µM

COc1cc(-c2nc3ccccc3[nH]2)ccc1OCC(=O)N=Nc1c(O)[nH]c2ccc(Cl)cc12
GI50 (HOP-92 NSCLC): 1.5 µM | TGI (HOP-92 NSCLC): 3.07 µM | GI50 (T-47D breast): 1.66 µM | TGI (T-47D breast): 3.75 µM | GI50 (EKVX NSCLC): 4.94 µM | TGI (EKVX NSCLC): > 100 µM | GI50 (HL-60(TB) leukemia): 1.93 µM | TGI (HL-60(TB) leukemia): 4.42 µM | GI50 (MDA-MB-231 breast): 0.547 µM | TGI (MDA-MB-231 breast): 1.86 µM | GI50 (SNB-19 CNS): 1.63 µM | TGI (SNB-19 CNS): 3.04 µM | GI50 (HOP-62 NSCLC): 1.79 µM | TGI (HOP-62 NSCLC): 3.44 µM | GI50 (RPMI-8226 leukemia): 1.12 µM | TGI (RPMI-8226 leukemia): 3.76 µM | GI50 (K-562 leukemia): 0.454 µM | TGI (K-562 leukemia): 3.1 µM

CCOc1ccccc1NC(=O)C(=O)C(C(=O)c1ccc2ccccc2c1)C1OC(=O)c2ccccc21 (stereo not given)
TGI (HOP-92 NSCLC): 38.1 µM | TGI (EKVX NSCLC): 77.3 µM | TGI (HL-60(TB) leukemia): 59.3 µM | TGI (SNB-19 CNS): 22 µM | TGI (HOP-62 NSCLC): 31.2 µM | TGI (RPMI-8226 leukemia): 40 µM | TGI (K-562 leukemia): > 100 µM

O=C1OCC2=C1C(c1cccc(C(F)(F)F)c1)c1cc3c(cc1N2CCO)OCO3 (stereo not given)
GI50 (HOP-92 NSCLC): 2.03 µM | TGI (HOP-92 NSCLC): > 50 µM | GI50 (HS 578T breast): 3.01 µM | TGI (HS 578T breast): > 50 µM | GI50 (EKVX NSCLC): 1.75 µM | TGI (EKVX NSCLC): > 50 µM | GI50 (MDA-MB-231 breast): 1.77 µM | TGI (MDA-MB-231 breast): > 50 µM | GI50 (SNB-19 CNS): 1.62 µM | TGI (SNB-19 CNS): > 50 µM | GI50 (HOP-62 NSCLC): 1.97 µM | TGI (HOP-62 NSCLC): > 50 µM | GI50 (RPMI-8226 leukemia): 1.79 µM | TGI (RPMI-8226 leukemia): > 50 µM | GI50 (K-562 leukemia): 0.273 µM | TGI (K-562 leukemia): > 50 µM

O=c1c2cc(Br)ccc2nc(-c2ccccc2)n1NCC1(O)OCC(O)C(O)C1O (stereo not given)
TGI (EKVX NSCLC): > 100 µM | TGI (HL-60(TB) leukemia): > 100 µM | TGI (SNB-19 CNS): > 100 µM | TGI (HOP-62 NSCLC): > 100 µM | TGI (RPMI-8226 leukemia): > 100 µM | TGI (K-562 leukemia): > 100 µM
